The values below come from US8609858B2, “Spiro derivatives of parthenin as novel anticancer agents” (Council of Scientific & Industrial Research, priority 2008, dated 2013).

A word on the pIC50: it is the negative decadic logarithm of the IC50, by convention in mol/L. Higher therefore signals a low IC50. For orientation: melting point means the temperature, or range, at which the solid turns liquid.

pIC50: −log10 of the molar value.

The test system of series [1] is PC-3. As to the kind of experiment: In vitro cytotoxicity screening (sulphodamine B dye), PC-3. Particulars: Homo sapiens; PC-3 prostate cancer cell line. Format: cell-based. The procedure:
(§1) Cells at sub confluent stage were harvested from the flask by treatment with trypsin (0.5% in PBS containing 0.02% EDTA) for determination of cytotoxicity. […] The cell suspensions of required cell density were prepared in complete growth medium with gentamycin (50 μg/ml) for determination of cytotoxicity. The cells (100 μl/well) were inoculated in 96 well tissue culture plates. The cells were allowed to grow for 24 hrs temperature of 37° C. and in a humidified atmosphere of 5% CO2 in air. Stock solution of (20 mM) of test material was prepared in DMSO. The stock solution was serially diluted with complete growth medium containing 50 μg/ml of gentamycin to obtain […] working test solutions of 1., 2, 5, 10, 50 and 100 μM.
(§2) The media were supplemented with FCS (10%), penicillin (100 Units/ml), streptomycin (100 μg/ml) and glutamine (2 mM) and cells were grown in CO2 incubator (Hera cell, Heraeus, USA) at 37° C. with 90% humidity and 5% CO2.

Series [2] deals with SW-620. As to the kind of experiment: In vitro cytotoxicity screening (sulphodamine B dye), SW-620. Format: cell-based. The note with it: Homo sapiens; SW-620 colon cancer cell line. The procedure:
as §1, §2

The test system of series [3] is DU-145. Briefly: In vitro cytotoxicity screening (sulphodamine B dye), DU-145. The note with it: Homo sapiens; DU-145 prostate cancer cell line. Format: cell-based. How it is done: as §1, §2
Series [4] deals with Ehrlich Ascites Carcinoma (EAC). As to the kind of experiment: Anti tumor activity on Ehrlich Ascites Carcinoma (EAC) bearing mice. Format: in vivo. The note with it: 20 mg/kg i.p., day 12. An excerpt:
(§3) Non-inbred swiss albino mice from an in-house colony were used in the present study. The breeding and experimental animals were housed in standard size polycarbonate cages providing internationally recommended space for each animal. Animals were fed balanced mice feed supplied by MIs Ashirwad Industries, Chandigarh (India) and autoclaved water was available ad libitum. Animals were cared as per the guide for the care and use of laboratory animals (1996), ILAR, Washington D.C. They were housed in controlled conditions of temperature (23±2° C.), humidity (50-60%) and 12:12 hrs of light: dark cycle. The study and the number of animals used were approved by the institutional animal ethics committee, IIIM, Jammu, India. The study was conducted as per the protocols of National Cancer Institute (NCl), USA (Geran et al., 1972).
Ehrlich Ascites Carcinoma (EAC) was propagated by transplanting 1×10^7 cells from an animal bearing 8-10 days old Ehrlich Ascites Carcinoma, into the peritoneal cavity of non-inbreed swiss mice. For testing, mice of the same sex weighing 20 ±3 g bearing ascites tumor were selected. 1×10^7 cells obtained from an animal bearing 8-10 days old ascites tumor were injected into peritoneal cavity of all animals used for testing (0 Day). On next day animals were randomized and divided into test groups (7 animals in each test group) and one tumor control group (10 animals). Test groups were treated with different doses of Parthenin (10 mg/kg, 25 mg/kg and 50 mg/kg) and its derivative Compound-17 (10 mg/kg, 25 mg/kg and 50 mg/kg, 100 mg/kg and 200 mg/kg) suspension in 1% gum acacia in their respective group intraperitonealy for nine consecutive days. Another test group was administered 5 FU @ 20 mg/kg i.p and served as positive control. The tumor control group was similarly administered normal saline (0.2 ml i.p). The percent tumor growth inhibition were measured on day 12 with respect to volume of ascitic fluid and the number of tumor cells in the ascitic fluid of peritoneal cavity (Geran et al., 1972; Singh et al., 2007).
The percent tumor growth inhibition was calculated as follow. % growth inhibition=100×(Average no. of cells in control group−Average no. of cells in test group)/Average no. of cells in control group Results: […]

Series [5] concerns Ehrlich Ascites Tumor (EAT). As to the kind of experiment: Anti tumor activity on solid Ehrlich Ascites Tumor (EAT) bearing mice. It is filed as in vivo. The note with it: 22 mg/kg i.p., day 13.
Excerpt: as §3
Parthenin and its derivative Compound-17 were evaluated against solid Ehrlich Ascites Tumor (EAT) models at different doses. A standard procedure for experiment was as followed:
Animals of the same sex weighing 20±3 g were injected 1×10^7 cells collected from the peritoneal cavity of non-inbred swiss mice, bearing 8-10 days old tumor cells, into the right thigh, intramuscularly (on Day 1). On next day animals were randomized and divided into test groups (7 animals in each test group) and one tumor control group (10 animals). Test groups were treated with different doses of Parthenin (10 mg/kg, 25 mg/kg and 50 mg/kg) and its derivative Compound-17 (10 mg/kg, 25 mg/kg and 50 mg/kg, 100 mg/kg and 200 mg/kg) suspension in 1% gum acacia in, their respective group intraperitonealy for nine consecutive days. Another test group was administered 5-FU @ 22 mg/kg i.p and served as positive control. The tumor contra group was similarly administered normal saline (0.2 ml i.p). The percent tumor growth-inhibition was measured on day 13 with respect to their tumor weight (Geran et al., 1972): Shortest and longest diameters of the tumor mass were measured with the help of vernier caliper and tumor weight (mg) was calculated by using following formula Tumor weight (mg)=Length (mm)×(Width (mm)^2/2 The average tumor weight for each group was calculated and the percent tumor growth inhibition in treated groups was calculated as follows: % Tumor Growth Inhibition=100×(Average tumor weight of control group−Average tumor weight of test group)/Average tumor weight of control group Anti Tumor Activity of Parthenin and its Derivative Compound-17 on Ehrlich Ascites Carcinoma (EAC)

Molecule `C[C@H]1CC[C@@H]2[C@@H](OC(=O)C23CC(c2ccccc2)N(c2ccccc2)O3)[C@]2(C)C(=O)C=C[C@@]12O` (some centres unmarked) [Compound -23] came in with a melting point of 170 °C. This molecule also gave a pIC50 in series [1] of 5.24. Moreover, in series [2], the pIC50 is 5.24. In series [3], the pIC50 was 5.25.
`Cc1ccccc1C1CC2(ON1c1ccccc1)C(=O)O[C@@H]1[C@H]2CC[C@H](C)[C@]2(O)C=CC(=O)[C@@]12C` (some centres unmarked) [Compound -19] showed a melting point of 181 °C. In series [1], this molecule gave a pIC50 of 5.19. Besides, the pIC50 in series [2] was 5.22. Also, the negative logarithm of the IC50 (pIC50) in series [3] is 5.25.
The like results for `C[C@H]1CC[C@@H]2[C@@H](OC(=O)C23CC(c2ccc(Cl)cc2)N(c2ccccc2)O3)[C@]2(C)C(=O)C=C[C@@]12O` (some centres unmarked) [Compound -18] were, in that order, 183 °C, 5.11, 5.12 and 5.15.
The like results for `C[C@H]1CC[C@@H]2[C@@H](OC(=O)C23CN3c2ccccc2[N+](=O)[O-])[C@]2(C)C(=O)C=C[C@]12O` (some centres unmarked) [Compound -39] were, in that order, 222 to 224 °C, 5.00, 4.48 and 4.55.
The like results for `Cc1ccc(C2CC3(ON2c2ccccc2)C(=O)O[C@@H]2[C@H]3CC[C@H](C)[C@]3(O)C=CC(=O)[C@@]23C)cc1` (some centres unmarked) [Compound -21] were, in that order, 114 °C, 5.07, 5.06 and 5.09.
In turn, `C[C@H]1CC[C@@H]2[C@@H](OC(=O)C23CC(c2cccc(Cl)c2)N(c2ccccc2)O3)[C@]2(C)C(=O)C=C[C@@]12O` (some centres unmarked) [Compound -31] displayed a melting point of 180 °C. For the same molecule, in series [1], the negative-log IC50 (pIC50) is 5.09. In series [2], this molecule gave a pIC50 of 5.21. The negative logarithm of the IC50 (pIC50) in series [3] was 5.13.
In turn, `Cc1ccccc1C1=NOC2(C1)C(=O)O[C@@H]1[C@H]2CC[C@H](C)[C@]2(O)C=CC(=O)[C@@]12C` (some centres unmarked) [Compound -13] returned a melting point of 277 °C. In addition, the pIC50 in series [1] is 5.00. Also, in series [2], the negative logarithm of the IC50 (pIC50) was 5.30. In addition, the pIC50 in series [3] is 4.92.
With `C[C@H]1CC[C@@H]2[C@@H](OC(=O)C23CN3c2ccccc2)[C@]2(C)C(=O)C=C[C@@]12O` (some centres unmarked) [Compound -34], the melting point was 245 to 247 °C. The pIC50 in series [1] was 4.97. Further, the pIC50 in series [2] is 4.06. Moreover, the pIC50 in series [3] was 4.50.
The corresponding values for `COc1cc(C2CC3(ON2c2ccccc2)C(=O)O[C@@H]2[C@H]3CC[C@H](C)[C@]3(O)C=CC(=O)[C@@]23C)cc(OC)c1OC` (some centres unmarked) [Compound -29] are 119 °C, 5.07, 5.24 and 5.25.
With `COc1ccccc1C1CC2(ON1c1ccccc1)C(=O)O[C@@H]1[C@H]2CC[C@H](C)[C@]2(O)C=CC(=O)[C@@]12C` (some centres unmarked) [Compound -33], the melting point stood at 111 °C. In addition, the pIC50 in series [1] was 4.09. In addition, in series [2], the pIC50 was 4.28. The molecule also showed a pIC50 in series [3] of 4.04.
The like results for `C[C@H]1CC[C@@H]2[C@@H](OC(=O)C23CC(c2ccc(Br)cc2)N(c2ccccc2)O3)[C@]2(C)C(=O)C=C[C@@]12O` (some centres unmarked) [Compound -20] were, in that order, 185 °C, 5.24, 5.17 and 5.20.
As for `C[C@H]1CC[C@@H]2[C@@H](OC(=O)C23CC(c2ccccc2[N+](=O)[O-])C(c2ccccc2)O3)[C@]2(C)C(=O)C=C[C@@]12O` (some centres unmarked) [Compound -32], the melting point came out at 158 °C. In addition, the pIC50 in series [1] was 5.08. Further, in series [2], the pIC50 was 4.89. Further, in series [3], the pIC50 is 4.55.
Regarding `O=c1[nH]cc(F)c(=O)[nH]1` [Compound 5-FU, 5-Fluorouracil, reference compound], in series [4], the “% Tumor growth inhibition” value was found to be 100%, the “Ascitic fluid volume (ml) Mean ± SE” value came to 0 mL and the “Tumor cells in ascitic fluid (×10^7) Mean ± SE” value is recorded as 0 ×10^7. Also, in series [5], the “% Tumor growth inhibition” value came to 51.28% and the “Tumor Weight (mg) Mean ± SE” value came out at 832.28 ± 35.21 mg.
Regarding `COc1ccc(C2CC3(ON2c2ccccc2)C(=O)O[C@@H]2[C@H]3CC[C@H](C)[C@]3(O)C=CC(=O)[C@@]23C)c(OC)c1` (some centres unmarked) [Compound -28], the melting point worked out at 99 °C. This molecule also showed a pIC50 in series [1] of 4.96. Further, in series [2], the pIC50 is 5.12. Besides, in series [3], the pIC50 is 4.96.
Regarding `COc1ccc(Br)cc1C1CC2(ON1c1ccccc1)C(=O)O[C@@H]1[C@H]2CC[C@H](C)[C@]2(O)C=CC(=O)[C@@]12C` (some centres unmarked) [Compound -27], the melting point was 197 °C. In addition, the pIC50 in series [1] is 5.09. Besides, in series [2], the pIC50 was 5.21. In addition, the pIC50 in series [3] is 5.11.
The like results for `C[C@H]1CC[C@@H]2[C@@H](OC(=O)C23CC(c2ccc(C#N)cc2)N(c2ccccc2)O3)[C@]2(C)C(=O)C=C[C@@]12O` (some centres unmarked) [Compound -26] were, in that order, 116 °C, 5.32, 5.32 and 5.30.
The corresponding values for `C[C@H]1CC[C@@H]2[C@@H](OC(=O)C23CC(c2ccc(F)cc2)=NO3)[C@]2(C)C(=O)C=C[C@@]12O` (some centres unmarked) [Compound -15] are 193 °C, 4.57, 5.44 and 4.89.
The corresponding values for `C[C@H]1CC[C@@H]2[C@@H](OC(=O)C23CC(c2ccc(Cl)cc2)=NO3)[C@]2(C)C(=O)C=C[C@@]12O` (some centres unmarked) [Compound -2] are 138.2 °C, 4.31, 4.29 and 4.37.
`COc1ccc(C2CC3(ON2c2ccccc2)C(=O)O[C@@H]2[C@H]3CC[C@H](C)[C@]3(O)C=CC(=O)[C@@]23C)cc1Br` (some centres unmarked) [Compound -25] returned a melting point of 96 °C. The molecule further showed a pIC50 in series [1] of 5.24. Besides, the pIC50 in series [2] was 5.17. The molecule further showed a pIC50 in series [3] of 5.20.
